#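 Where inhibition never reached the appropriate level, the endpoint shown equals the highest concentration tested. Otherwise, values were interpolated linearly from a five-concentration, 48-hour dose response in 96-well plates. At the GI50, growth is halved.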 Calls of active or inactive are those of the source. Cut-off read from the data, not from the text of the source: active = GI50 up to about 1.1 µM and inactive = higher.
# Experiments:
# Test in all cases: DTP human tumour cell line panel, 48 h
# [1] = test system: 786-0
# [2] = test system: A549
# [3] = test system: ACHN
# [4] = test system: CAKI-1
# [5] = test system: CCRF-CEM
# [6] = test system: COLO 205
# [7] = test system: DLD-1
# [8] = test system: DMS-114
# [9] = test system: DMS-273
# [10] = test system: EKVX
# [11] = test system: HCC 2998
# [12] = test system: HCT-116
# [13] = test system: HCT-15
# [14] = test system: HL-60
# [15] = test system: HOP-62
# [16] = test system: HOP-92
# [17] = test system: HT-29
# [18] = test system: IGROV-1
# [19] = test system: K562
# [20] = test system: KM-20L2
# [21] = test system: KM12
# [22] = test system: LOX IMVI
# [23] = test system: LXFL 529
# [24] = test system: M14
# [25] = test system: M19-MEL
# [26] = test system: MOLT-4
# [27] = test system: Malme-3M
# [28] = test system: NCI-H226
# [29] = test system: NCI-H23
# [30] = test system: NCI-H460
# [31] = test system: NCI-H522
# [32] = test system: OVCAR-3
# [33] = test system: OVCAR-4
# [34] = test system: OVCAR-5
# [35] = test system: OVCAR-8
# [36] = test system: RPMI-8226
# [37] = test system: SF-268
# [38] = test system: SF-295
# [39] = test system: SF-539
# [40] = test system: SK-MEL-28
# [41] = test system: SK-MEL-2
# [42] = test system: SK-MEL-5
# [43] = test system: SK-OV-3
# [44] = test system: SN12C
# [45] = test system: SNB-19
# [46] = test system: SNB-78
# [47] = test system: SR
# [48] = test system: SW-620
# [49] = test system: TK-10
# [50] = test system: U-251
# [51] = test system: UACC-257
# [52] = test system: UACC-62
# [53] = test system: UO-31
# [54] = test system: XF498
# [55] = test system: A498
# [56] = test system: RXF 393
# [57] = test system: SNB-75
compound,measurement,setting,value
COc1ccc(/C=C/C(C(=O)O)C(=O)O)cc1,GI50,[1],> 100 µM (inactive)
same,GI50,[2],> 100 µM (inactive)
same,GI50,[3],92 µM (inactive)
same,GI50,[4],> 100 µM (inactive)
same,GI50,[5],26.2 µM (inactive)
same,GI50,[6],> 100 µM (inactive)
same,GI50,[7],> 100 µM (inactive)
same,GI50,[8],> 100 µM (inactive)
same,GI50,[9],> 100 µM (inactive)
same,GI50,[10],78.9 µM (inactive)
same,GI50,[11],> 100 µM (inactive)
same,GI50,[12],> 100 µM (inactive)
same,GI50,[13],45.6 µM
same,GI50,[14],24.3 µM (inactive)
same,GI50,[15],> 100 µM (inactive)
same,GI50,[16],72.1 µM (inactive)
same,GI50,[17],78.9 µM (inactive)
same,GI50,[18],> 100 µM (inactive)
same,GI50,[19],32.4 µM (inactive)
same,GI50,[20],91.6 µM (inactive)
same,GI50,[21],50.7 µM (inactive)
same,GI50,[22],16.1 µM (inactive)
same,GI50,[23],36.4 µM (inactive)
same,GI50,[24],75.7 µM (inactive)
same,GI50,[25],61.8 µM (inactive)
same,GI50,[26],25.8 µM (inactive)
same,GI50,[27],69.8 µM (inactive)
same,GI50,[28],> 100 µM (inactive)
same,GI50,[29],> 100 µM (inactive)
same,GI50,[30],> 100 µM (inactive)
same,GI50,[31],30.8 µM (inactive)
same,GI50,[32],47.9 µM (inactive)
same,GI50,[33],35.2 µM (inactive)
same,GI50,[34],78.5 µM (inactive)
same,GI50,[35],> 100 µM (inactive)
same,GI50,[36],32.8 µM (inactive)
same,GI50,[37],67.5 µM (inactive)
same,GI50,[38],> 100 µM (inactive)
same,GI50,[39],> 100 µM (inactive)
same,GI50,[40],22.5 µM (inactive)
same,GI50,[41],> 100 µM (inactive)
same,GI50,[42],76.6 µM (inactive)
same,GI50,[43],> 100 µM (inactive)
same,GI50,[44],51.3 µM (inactive)
same,GI50,[45],70.5 µM (inactive)
same,GI50,[46],48.1 µM (inactive)
same,GI50,[47],34.8 µM (inactive)
same,GI50,[48],31.5 µM (inactive)
same,GI50,[49],> 100 µM (inactive)
same,GI50,[50],> 100 µM (inactive)
same,GI50,[51],97.9 µM (inactive)
same,GI50,[52],49.2 µM (inactive)
same,GI50,[53],64.3 µM (inactive)
same,GI50,[54],> 100 µM (inactive)
CC1(OCc2ccccc2)C(=O)N2C1N(C(=O)OCc1ccccc1)CC2(C)C (centres undefined),GI50,[1],> 100 µM (inactive)
same,GI50,[55],56.9 µM (inactive)
same,GI50,[2],38.8 µM (inactive)
same,GI50,[3],61.1 µM (inactive)
same,GI50,[5],35.1 µM (inactive)
same,GI50,[6],94.6 µM (inactive)
same,GI50,[7],54.3 µM (inactive)
same,GI50,[8],31.3 µM (inactive)
same,GI50,[9],53.6 µM (inactive)
same,GI50,[10],67.8 µM (inactive)
same,GI50,[11],> 100 µM (inactive)
same,GI50,[12],69.8 µM (inactive)
same,GI50,[13],68.1 µM
same,GI50,[14],29.4 µM (inactive)
same,GI50,[15],82.4 µM (inactive)
same,GI50,[17],67.8 µM (inactive)
same,GI50,[18],57.3 µM (inactive)
same,GI50,[19],42.8 µM (inactive)
same,GI50,[20],55.8 µM (inactive)
same,GI50,[22],46.6 µM (inactive)
same,GI50,[23],31.6 µM (inactive)
same,GI50,[24],66.8 µM (inactive)
same,GI50,[25],32.1 µM (inactive)
same,GI50,[26],28.2 µM (inactive)
same,GI50,[27],80 µM (inactive)
same,GI50,[28],41.4 µM (inactive)
same,GI50,[29],35.1 µM (inactive)
same,GI50,[30],42.6 µM (inactive)
same,GI50,[32],> 100 µM (inactive)
same,GI50,[33],> 100 µM (inactive)
same,GI50,[35],34.8 µM (inactive)
same,GI50,[36],27.5 µM (inactive)
same,GI50,[56],67.5 µM (inactive)
same,GI50,[37],> 100 µM (inactive)
same,GI50,[38],38.5 µM (inactive)
same,GI50,[39],> 100 µM (inactive)
same,GI50,[40],> 100 µM (inactive)
same,GI50,[41],69.3 µM (inactive)
same,GI50,[42],17.9 µM (inactive)
same,GI50,[44],> 100 µM (inactive)
same,GI50,[45],54.2 µM (inactive)
same,GI50,[57],32.4 µM (inactive)
same,GI50,[47],30.5 µM (inactive)
same,GI50,[48],> 100 µM (inactive)
same,GI50,[49],> 100 µM (inactive)
same,GI50,[50],49.3 µM (inactive)
same,GI50,[51],36.6 µM (inactive)
same,GI50,[52],38.5 µM (inactive)
same,GI50,[53],31.4 µM (inactive)
same,GI50,[54],24.8 µM (inactive)
